From patent publication US5620958A, “Bradykinin antagonists” (Coretech, Inc., priority 1994, dated 1997)
Square brackets hold non-standard residues; d marks the D form. Peptide text beside a SMILES is read from it. Oic = O=C(O)[C@@H]1C[C@@H]2CCCC[C@@H]2N1; Hyp = O=C(O)[C@@H]1C[C@@H](O)CN1; dTic = O=C(O)[C@H]1Cc2ccccc2CN1; 2Thi = N[C@@H](Cc1cccs1)C(=O)O

Experiments:
BK2 receptor [1] = target: T1, BK2 receptor (Cavia porcellus, UniProt O70526); test: guinea-pig ileum (GPI) in vitro, antagonism of BK; format: cell-based; settings: Table B; read-out: pA2 GUINEA PIG ILEUM (converted)
T1 construct: tested for activity on guinea pig ileum in vitro on the standard tissue bath/strain gauge system; from tissue; host or cells: guinea pig ileum
T1 sequence (O70526 1-372): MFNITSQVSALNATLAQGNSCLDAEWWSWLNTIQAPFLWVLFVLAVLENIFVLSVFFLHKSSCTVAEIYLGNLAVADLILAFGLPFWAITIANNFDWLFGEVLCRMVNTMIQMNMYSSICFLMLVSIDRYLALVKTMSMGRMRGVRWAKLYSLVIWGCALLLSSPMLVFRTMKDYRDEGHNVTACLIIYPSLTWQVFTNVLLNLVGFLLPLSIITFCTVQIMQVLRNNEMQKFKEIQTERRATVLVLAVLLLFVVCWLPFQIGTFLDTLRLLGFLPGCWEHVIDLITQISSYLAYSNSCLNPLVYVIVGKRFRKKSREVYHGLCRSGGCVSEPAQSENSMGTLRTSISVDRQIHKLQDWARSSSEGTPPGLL
Method: Thus, in vitro studies were performed on standard assay systems, namely, guinea-pig ileum (GPI), rat uterus (RU) and rabbit jugular vein (RJV). […] The potency of each compound was assessed as a pA2 value according to the method of Arunlakshana & Schild, Br. J. Pharmacol. Chemother., 1.4:48-58 (1959). The pA2 can be defined as the negative logarithm of the molar concentration of the antagonist in the presence of which the potency of the agonist is reduced two-fold, i.e., twice the amount of agonist is required to produce a given response in the presence of, than in the absence of, the antagonist. A high potency of antagonism is indicated by a high pA2 value, i.e., a low concentration of antagonist is effective.
The percentage recovery (% Rec) was also determined for compounds with respect to each assay.
The various compounds identified in Table B below were prepared following the procedure of Example 1 with the Cys moiety introduced into the parent CP-0088 at the position indicated followed by reaction between the sulfhydryl group of the Cys residue and BMH to provide dimers as indicated. The Cys-modified monomers and the resultant dimers were tested for activity on guinea pig ileum in vitro on the standard tissue bath/strain gauge system as before.

BK1 receptor = target: T2, BK1 receptor (Oryctolagus cuniculus, UniProt P48748); test: blood pressure response to BK1 agonist in LPS-pretreated rabbits; format: in vivo, rabbit; settings: rabbits given LPS (10 μg) 20 hours before
T2 construct: when administered to an intact animal; from tissue; host or cells: whole rabbit (systemic arterial blood pressure), LPS-pretreated
T2 sequence (P48748 1-352): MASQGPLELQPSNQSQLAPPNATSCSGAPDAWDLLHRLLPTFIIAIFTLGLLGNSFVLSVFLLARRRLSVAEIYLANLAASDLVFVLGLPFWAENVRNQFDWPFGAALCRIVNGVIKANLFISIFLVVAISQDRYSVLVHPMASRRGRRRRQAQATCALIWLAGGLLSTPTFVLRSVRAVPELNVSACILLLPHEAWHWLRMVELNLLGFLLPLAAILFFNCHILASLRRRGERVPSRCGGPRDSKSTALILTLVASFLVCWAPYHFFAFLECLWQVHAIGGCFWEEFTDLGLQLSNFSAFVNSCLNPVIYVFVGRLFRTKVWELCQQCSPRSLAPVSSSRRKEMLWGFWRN

BK2 receptor [2] = target: T3, BK2 receptor (Oryctolagus cuniculus, UniProt Q28642); test: blood pressure response to BK2 agonist in LPS-pretreated rabbits; format: in vivo, rabbit; parameters: key to OBSERVED ANTAGONIST ACTIVITY BK2: +: indicates complete blockade of the blood pressure response to the appropriate agonist; +/-: indicates partial blockade; -: indicates no observable effect at the dose indicated; settings: rabbits given LPS (10 μg) 20 hours before
T3 construct: when administered to an intact animal; from tissue; host or cells: whole rabbit (systemic arterial blood pressure), LPS-pretreated
T3 sequence (Q28642 1-367): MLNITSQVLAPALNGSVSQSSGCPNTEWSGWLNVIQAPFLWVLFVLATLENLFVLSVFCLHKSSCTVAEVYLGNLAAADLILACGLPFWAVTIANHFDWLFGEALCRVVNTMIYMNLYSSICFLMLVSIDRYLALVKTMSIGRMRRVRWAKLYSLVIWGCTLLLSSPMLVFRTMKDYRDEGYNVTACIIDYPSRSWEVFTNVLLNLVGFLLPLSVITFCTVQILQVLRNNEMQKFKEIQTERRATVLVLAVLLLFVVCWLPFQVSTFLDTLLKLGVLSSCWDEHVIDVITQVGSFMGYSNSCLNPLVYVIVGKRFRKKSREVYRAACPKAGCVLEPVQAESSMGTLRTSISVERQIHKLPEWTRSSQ

BK2 receptor [3] = target: T4, BK2 receptor (Rattus norvegicus, UniProt P25023); test: cell-based
T4 sequence (P25023 1-396): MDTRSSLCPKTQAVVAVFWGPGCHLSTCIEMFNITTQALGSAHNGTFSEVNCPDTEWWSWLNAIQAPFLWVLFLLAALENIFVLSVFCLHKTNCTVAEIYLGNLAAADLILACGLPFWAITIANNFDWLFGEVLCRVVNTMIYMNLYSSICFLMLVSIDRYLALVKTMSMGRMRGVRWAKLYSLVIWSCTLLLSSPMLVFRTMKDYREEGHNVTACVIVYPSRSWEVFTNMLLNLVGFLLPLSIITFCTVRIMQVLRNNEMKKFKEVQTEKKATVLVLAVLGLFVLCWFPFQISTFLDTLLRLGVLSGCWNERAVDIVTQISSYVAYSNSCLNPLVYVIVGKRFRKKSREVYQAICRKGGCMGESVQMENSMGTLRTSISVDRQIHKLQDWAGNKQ

Structure (SMILES)	Kb (BK2 receptor [1]) [nM]	OBSERVED ANTAGONIST ACTIVITY BK1 (BK1 receptor; 1 μg kg^-1 min^-1)	OBSERVED ANTAGONIST ACTIVITY BK1 (BK1 receptor; 3 μg kg^-1 min^-1)	OBSERVED ANTAGONIST ACTIVITY BK1 (BK1 receptor; 10 μg kg^-1 min^-1)	OBSERVED ANTAGONIST ACTIVITY BK2 (BK2 receptor [2]; 1 μg kg^-1 min^-1)	OBSERVED ANTAGONIST ACTIVITY BK2 (BK2 receptor [2]; 3 μg kg^-1 min^-1)	OBSERVED ANTAGONIST ACTIVITY BK2 (BK2 receptor [2]; 10 μg kg^-1 min^-1)	Kb (BK2 receptor [3]) [nM]
CC(C)C[C@H](NC(=O)[C@@H](Cc1ccccc1)NC(=O)[C@H](CO)NC(=O)[C@H](Cc1ccccc1)NC(=O)CNC(=O)[C@@H]1C[C@@H](O)CN1C(=O)[C@H](CS)NC(=O)[C@H](CCCNC(=N)N)NC(=O)[C@H](N)CCCNC(=N)N)C(=O)N[C@@H](CCCNC(=N)N)C(=O)O [CP-0142] (HELM PEPTIDE1{[dR].R.C.[Hyp].G.F.S.[dF].L.R}$$$$V2.0)	> 1000							
N=C(N)NCCC[C@@H](N)C(=O)N[C@@H](CCCNC(=N)N)C(=O)N1CCC[C@H]1C(=O)N1C[C@H](O)C[C@H]1C(=O)NCC(=O)N[C@@H](Cc1cccs1)C(=O)N[C@@H](CO)C(=O)N1Cc2ccccc2C[C@@H]1C(=O)N1[C@H](C(=O)O)C[C@@H]2CCCC[C@@H]21 [CP-0345] (H-[dR]RP[Hyp]G[2Thi]S[dTic][Oic]-OH; N-terminus and C-terminus assumed)		-	+	+	-	+/-	+	
CC(C)C[C@H](NC(=O)[C@@H](Cc1ccccc1)NC(=O)[C@H](CO)NC(=O)[C@H](Cc1ccccc1)NC(=O)CNC(=O)[C@@H]1C[C@@H](O)CN1C(=O)[C@@H]1CCCN1C(=O)[C@H](CSC1CC(=O)N(CCCCCCN2C(=O)CC(SC[C@H](NC(=O)[C@H](Cc3ccccc3)NC(=O)CNC(=O)[C@@H]3C[C@@H](O)CN3C(=O)[C@@H]3CCCN3C(=O)[C@H](CCCNC(=N)N)NC(=O)[C@H](N)CCCNC(=N)N)C(=O)N[C@H](Cc3ccccc3)C(=O)N[C@@H](CC(C)C)C(=O)N[C@@H](CCCNC(=N)N)C(=O)O)C2=O)C1=O)NC(=O)[C@H](N)CCCNC(=N)N)C(=O)O (stereo partly drawn) [CP-0386] (HELM PEPTIDE1{[dR].R.P.[Hyp].G.F.C.[dF].L.R}|PEPTIDE2{[dR].C.P.[Hyp].G.F.S.[dF].L}|CHEM1{[O=C1CC([*:1])C(=O)N1CCCCCCN1C(=O)CC([*:2])C1=O]}$PEPTIDE1,CHEM1,7:R3-1:R1|PEPTIDE2,CHEM1,2:R3-1:R2$$$V2.0; N-terminus and C-terminus assumed)		+	+	+	+	+	+	
CC(C)C[C@H](NC(=O)[C@@H](Cc1ccccc1)NC(=O)[C@H](CSC1CC(=O)N(CCCCCCCCCN2C(=O)CC(SC[C@H](NC(=O)[C@H](Cc3ccccc3)NC(=O)CNC(=O)[C@@H]3C[C@@H](O)CN3C(=O)[C@@H]3CCCN3C(=O)[C@H](CCCNC(=N)N)NC(=O)[C@H](N)CCCNC(=N)N)C(=O)N[C@H](Cc3ccccc3)C(=O)N[C@@H](CC(C)C)C(=O)N[C@@H](CCCNC(=N)N)C(=O)O)C2=O)C1=O)NC(=O)[C@H](Cc1ccccc1)NC(=O)CNC(=O)[C@@H]1C[C@@H](O)CN1C(=O)[C@@H]1CCCN1C(=O)[C@H](CCCNC(=N)N)NC(=O)[C@H](N)CCCNC(=N)N)C(=O)N[C@@H](CCCNC(=N)N)C(=O)O (stereo partly drawn) [CP-0229] (HELM PEPTIDE1{[dR].R.P.[Hyp].G.F.C.[dF].L.R}|PEPTIDE2{[dR].R.P.[Hyp].G.F.C.[dF].L.R}|CHEM1{[O=C1CC([*:1])C(=O)N1CCCCCCCCCN1C(=O)CC([*:2])C1=O]}$PEPTIDE1,CHEM1,7:R3-1:R1|PEPTIDE2,CHEM1,7:R3-1:R2$$$V2.0)								0.501
CC(C)C[C@H](NC(=O)[C@@H]1CCCN1C(=O)[C@H](CO)NC(=O)[C@H](Cc1ccccc1)NC(=O)CNC(=O)[C@@H]1CCCN1C(=O)[C@@H]1CCCN1C(=O)[C@H](CCCNC(=N)N)NC(=O)[C@@H](N)CCCCN)C(=O)O [CP-0298, Lys^0Arg^1Pro^2Pro^3Gly^4Phe^5Ser^6Pro^7Leu^8, reference compound]		+	+	+	-	-	-	
CC(C)C[C@H](NC(=O)[C@@H](Cc1ccccc1)NC(=O)[C@H](CSC1CC(=O)N(CCCCCCCCCCN2C(=O)CC(SC[C@H](NC(=O)[C@H](Cc3ccccc3)NC(=O)CNC(=O)[C@@H]3C[C@@H](O)CN3C(=O)[C@@H]3CCCN3C(=O)[C@H](CCCNC(=N)N)NC(=O)[C@H](N)CCCNC(=N)N)C(=O)N[C@H](Cc3ccccc3)C(=O)N[C@@H](CC(C)C)C(=O)N[C@@H](CCCNC(=N)N)C(=O)O)C2=O)C1=O)NC(=O)[C@H](Cc1ccccc1)NC(=O)CNC(=O)[C@@H]1C[C@@H](O)CN1C(=O)[C@@H]1CCCN1C(=O)[C@H](CCCNC(=N)N)NC(=O)[C@H](N)CCCNC(=N)N)C(=O)N[C@@H](CCCNC(=N)N)C(=O)O (stereo partly drawn) [CP-0230] (HELM PEPTIDE1{[dR].R.P.[Hyp].G.F.C.[dF].L.R}|PEPTIDE2{[dR].R.P.[Hyp].G.F.C.[dF].L.R}|CHEM1{[O=C1CC([*:1])C(=O)N1CCCCCCCCCCN1C(=O)CC([*:2])C1=O]}$PEPTIDE1,CHEM1,7:R3-1:R1|PEPTIDE2,CHEM1,7:R3-1:R2$$$V2.0)								2.51
N=C(N)NCCC[C@@H](N)C(=O)N[C@@H](CCCNC(=N)N)C(=O)N1CCC[C@H]1C(=O)N1C[C@H](O)C[C@H]1C(=O)NCC(=O)N[C@@H](Cc1ccccc1)C(=O)N[C@@H](CO)C(=O)N1Cc2ccccc2C[C@@H]1C(=O)N1[C@H](C(=O)O)C[C@@H]2CCCC[C@@H]21 [CP-0267] (HELM PEPTIDE1{[dR].R.P.[Hyp].G.F.S.[O=C([C@H]1Cc2ccccc2CN1[*:1])[*:2]].[O=C(O)[C@@H]1C[C@@H]2CCCC[C@@H]2N1[*:1]]}$$$$V2.0)		-	-	+	-	-	+/-	
